The results in this text go back to PubChem BioAssay (NCI).

“And” between values parts separate entries of the source, which are not always exact repeats. Equal values may be shown once.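 All cell lines were grown in 96-well plates and treated with compound for 48 hours. The concentration for 50% growth inhibition is given as GI50. At the TGI there is no net growth.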

Some test systems named below: MDA-N; A498 renal; MDA-MB-231 breast; SK-MEL-28 melanoma; 786-0 renal; DLD-1 colon; SW-620 colon; HCT-15 colon; KM20L2 colon; LXFL 529 NSCLC; M14 melanoma; BT-549 breast; SNB-78 CNS.
What all share (test): NCI tumour cell line growth inhibition, 48 h

With `CCN(CCO)CCNc1ccc(C)c2sc3ccccc3c(=O)c12`, the TGI in the test on MDA-N is 3.16 µM; in the test with A498 renal it was 31.2 µM; with MDA-MB-231 breast, 5.32 µM; in the test on SK-MEL-28 melanoma, 3.77 µM; with 786-0 renal it was 8.57 µM; in the test with DLD-1 colon, 14.2 µM. Moreover, the TGI was 5.5 µM in the test with SW-620 colon; 10.8 µM in the test with HCT-15 colon; 7.27 µM in the test with KM20L2 colon; 10.4 µM with LXFL 529 NSCLC; 3.23 µM with M14 melanoma; 26.7 µM with BT-549 breast. For the same compound, in the test on SNB-78 CNS, the TGI was 20.6 µM.
`COc1ccc(N=Nc2c(N)nn(C)c2N)cc1`: the TGI in the test on A498 renal, in the test with SK-MEL-28 melanoma, in the test with 786-0 renal, with DLD-1 colon, in the test on SW-620 colon and in the test on HCT-15 colon was greater than 100 µM in each case. The TGI in the test on KM20L2 colon, in the test on LXFL 529 NSCLC, in the test with M14 melanoma and in the test on SNB-78 CNS was greater than 100 µM in each case.
`C[C@H]1CCC/C=C/[C@@H]2C[C@H](O)C[C@H]2[C@H](O)/C=C/C(=O)O1`: the GI50 with A498 renal is less than 0.0149 µM; in the test with MDA-MB-231 breast, < 0.01 µM and 0.0205 µM and 0.0547 µM; in the test on SK-MEL-28 melanoma, 0.0292 µM; in the test on DLD-1 colon, 0.0381 µM; with HCT-15 colon it was 0.104 µM; in the test with LXFL 529 NSCLC it was 0.031 µM. For the same compound, the GI50 in the test with SNB-78 CNS is 0.0324 µM. The TGI with A498 renal was 0.0821 µM and 0.0376 µM; in the test with MDA-MB-231 breast, 0.0821 µM and 0.0399 µM; in the test on DLD-1 colon, 17.3 µM; in the test with SW-620 colon it was 0.0856 µM and 0.118 µM and 0.124 µM; with KM20L2 colon it was 0.0368 µM and 0.0279 µM; in the test with LXFL 529 NSCLC, 0.0285 µM and 0.11 µM. For the same compound, the TGI in the test with M14 melanoma is 6.57 µM and 0.738 µM; in the test with SNB-78 CNS it was greater than 100 µM.
